ChEMBL document CHEMBL5214932, “A closer look at N2,6-substituted 1,3,5-triazine-2,4-diamines: Advances in synthesis and biological activities” (Eur J Med Chem, 2022)

Experiments:
[1] = Cytotoxicity against human HCO cell assessed as cell growth inhibition incubated for 96 hrs by WST-8 assay; format: functional, cell-based
[2] = test system: HEK293; experiment: Cytotoxicity against HEK293 cells assessed as cell growth inhibition incubated for 96 hrs by WST-8 assay; format: functional, cell-based; conditions: Homo sapiens, HEK293, 96 h
[3] = target: 1-acyl-sn-glycerol-3-phosphate acyltransferase beta (Homo sapiens, UniProt O15120); experiment: Inhibition of LPAAT-beta (unknown origin) expressed in Xenopus laevis oocytes incubated for 3 mins; format: cell-based, Oocyte
1-acyl-sn-glycerol-3-phosphate acyltransferase beta, sequence (O15120 whole entry): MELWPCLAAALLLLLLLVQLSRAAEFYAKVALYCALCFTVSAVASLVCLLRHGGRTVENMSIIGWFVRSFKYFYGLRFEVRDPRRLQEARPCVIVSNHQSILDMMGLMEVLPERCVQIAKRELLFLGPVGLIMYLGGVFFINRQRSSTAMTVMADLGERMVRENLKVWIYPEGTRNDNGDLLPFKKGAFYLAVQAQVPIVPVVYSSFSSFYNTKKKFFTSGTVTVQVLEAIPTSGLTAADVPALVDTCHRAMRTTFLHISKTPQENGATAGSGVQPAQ

[4] = test system: SK-OV-3; experiment: Cytotoxicity against human SK-OV-3 cells assessed as cell growth inhibition incubated for 96 hrs by WST-8 assay; format: functional, cell-based; conditions: SK-OV-3, 96 h
[5] = test system: HeLa; experiment: Cytotoxicity against human HeLa cells assessed as cell growth inhibition incubated for 96 hrs by WST-8 assay; format: functional, cell-based
[6] = test system: MEF; experiment: Cytotoxicity against mouse MEF cells assessed as cell growth inhibition incubated for 96 hrs by WST-8 assay; format: functional, cell-based
[7] = test system: MCF7; experiment: Cytotoxicity against human MCF7 cells assessed as cell growth inhibition; format: functional, cell-based
[8] = test system: HL-60; experiment: Cytotoxicity against human HL-60 cells assessed as cell growth inhibition; format: functional, cell-based
[9] = test system: SK-OV-3; experiment: Cytotoxicity against human SK-OV-3 cells assessed as cell growth inhibition; format: functional, cell-based
[10] = Cytotoxicity against mouse LL2 cells assessed as cell growth inhibition; format: functional, cell-based; conditions: Lewis lung carcinoma
[11] = Cytotoxicity against human IM-9 cells assessed as cell growth inhibition; format: toxicity, cell-based
[12] = test system: Jurkat; experiment: Cytotoxicity against human Jurkat cells assessed as cell growth inhibition; format: functional, cell-based
[13] = test system: HEC-1-A; experiment: Cytotoxicity against human HEC-1-A cells assessed as cell growth inhibition; format: functional, cell-based
[14] = test system: K562; experiment: cells; conditions: Homo sapiens
Description: Cytotoxicity against human K562 cells assessed as cell growth inhibition

[15] = test system: Daudi; experiment: Cytotoxicity against human Daudi cells assessed as cell growth inhibition; format: functional, cell-based
[16] = test system: AN3-CA; experiment: Cytotoxicity against human AN3-CA cells assessed as cell growth inhibition; format: functional, cell-based
[17] = test system: DU-145; experiment: Cytotoxicity against human DU-145 cells assessed as cell growth inhibition; format: functional, cell-based
[18] = Cytotoxicity against human MHOC-59 cell assessed as cell growth inhibition; format: functional, cell-based
[19] = target: T1, Equilibrative nucleoside transporter 2 (Homo sapiens, UniProt Q14542); experiment: Inhibition of human ENT2 transfected in nucleoside transporter-deficient pig PK-15 cells assessed as inhibition of [3H]-uridine uptake by liquid scintillation counter analysis; format: cell-based
T1 sequence (Q14542 whole entry): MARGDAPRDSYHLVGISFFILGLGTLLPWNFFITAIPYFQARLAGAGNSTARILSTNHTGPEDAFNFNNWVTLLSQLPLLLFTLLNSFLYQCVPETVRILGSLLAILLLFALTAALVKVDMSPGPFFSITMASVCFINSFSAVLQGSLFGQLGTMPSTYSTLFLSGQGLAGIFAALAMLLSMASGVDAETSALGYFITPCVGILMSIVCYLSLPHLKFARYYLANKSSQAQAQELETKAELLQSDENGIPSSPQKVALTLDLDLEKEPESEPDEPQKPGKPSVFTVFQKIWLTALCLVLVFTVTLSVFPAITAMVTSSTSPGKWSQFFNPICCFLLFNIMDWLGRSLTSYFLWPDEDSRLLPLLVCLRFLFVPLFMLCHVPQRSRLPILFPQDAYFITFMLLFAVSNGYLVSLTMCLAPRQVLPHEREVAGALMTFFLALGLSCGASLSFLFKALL

[20] = target: T2, Equilibrative nucleoside transporter 1 (Homo sapiens, UniProt Q99808); experiment: Inhibition of human ENT1 transfected in nucleoside transporter-deficient pig PK-15 cells assessed as inhibition of [3H]-uridine uptake by liquid scintillation counter analysis; format: cell-based
T2 sequence (Q99808 whole entry): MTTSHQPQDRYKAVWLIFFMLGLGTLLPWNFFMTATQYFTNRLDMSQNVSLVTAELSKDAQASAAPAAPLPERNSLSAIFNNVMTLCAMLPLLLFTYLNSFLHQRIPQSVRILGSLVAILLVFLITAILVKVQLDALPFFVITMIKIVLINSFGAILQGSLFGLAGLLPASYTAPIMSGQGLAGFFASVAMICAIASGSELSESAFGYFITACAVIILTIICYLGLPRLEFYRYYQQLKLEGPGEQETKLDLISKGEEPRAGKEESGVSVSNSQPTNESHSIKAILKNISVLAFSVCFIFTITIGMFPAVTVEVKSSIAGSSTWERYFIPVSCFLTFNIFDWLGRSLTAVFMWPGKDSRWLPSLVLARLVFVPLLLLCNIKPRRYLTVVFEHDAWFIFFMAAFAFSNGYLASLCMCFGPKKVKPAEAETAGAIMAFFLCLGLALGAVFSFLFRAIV

[21] = target: NADPH oxidase 1 (Homo sapiens, UniProt Q9Y5S8); experiment: Inhibition of human NOX1
NADPH oxidase 1, sequence (Q9Y5S8 whole entry): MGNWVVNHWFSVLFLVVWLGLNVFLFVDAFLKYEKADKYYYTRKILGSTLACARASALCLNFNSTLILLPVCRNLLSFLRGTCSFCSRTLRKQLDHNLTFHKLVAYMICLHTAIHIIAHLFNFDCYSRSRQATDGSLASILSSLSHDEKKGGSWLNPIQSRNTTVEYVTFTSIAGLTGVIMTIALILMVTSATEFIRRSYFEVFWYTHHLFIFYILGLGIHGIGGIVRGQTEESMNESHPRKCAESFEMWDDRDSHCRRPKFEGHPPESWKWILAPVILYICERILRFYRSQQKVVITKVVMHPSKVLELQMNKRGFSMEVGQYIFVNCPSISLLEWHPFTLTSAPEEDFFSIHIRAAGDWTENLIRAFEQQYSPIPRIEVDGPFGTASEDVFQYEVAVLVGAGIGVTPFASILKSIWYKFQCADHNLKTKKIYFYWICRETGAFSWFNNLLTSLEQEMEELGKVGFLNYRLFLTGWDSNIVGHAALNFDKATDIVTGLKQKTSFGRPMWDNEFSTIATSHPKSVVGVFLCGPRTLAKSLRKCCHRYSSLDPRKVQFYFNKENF

[22] = target: NADPH oxidase 5 (Homo sapiens, UniProt Q96PH1); experiment: Inhibition of human NOX5
NADPH oxidase 5, sequence (Q96PH1 whole entry): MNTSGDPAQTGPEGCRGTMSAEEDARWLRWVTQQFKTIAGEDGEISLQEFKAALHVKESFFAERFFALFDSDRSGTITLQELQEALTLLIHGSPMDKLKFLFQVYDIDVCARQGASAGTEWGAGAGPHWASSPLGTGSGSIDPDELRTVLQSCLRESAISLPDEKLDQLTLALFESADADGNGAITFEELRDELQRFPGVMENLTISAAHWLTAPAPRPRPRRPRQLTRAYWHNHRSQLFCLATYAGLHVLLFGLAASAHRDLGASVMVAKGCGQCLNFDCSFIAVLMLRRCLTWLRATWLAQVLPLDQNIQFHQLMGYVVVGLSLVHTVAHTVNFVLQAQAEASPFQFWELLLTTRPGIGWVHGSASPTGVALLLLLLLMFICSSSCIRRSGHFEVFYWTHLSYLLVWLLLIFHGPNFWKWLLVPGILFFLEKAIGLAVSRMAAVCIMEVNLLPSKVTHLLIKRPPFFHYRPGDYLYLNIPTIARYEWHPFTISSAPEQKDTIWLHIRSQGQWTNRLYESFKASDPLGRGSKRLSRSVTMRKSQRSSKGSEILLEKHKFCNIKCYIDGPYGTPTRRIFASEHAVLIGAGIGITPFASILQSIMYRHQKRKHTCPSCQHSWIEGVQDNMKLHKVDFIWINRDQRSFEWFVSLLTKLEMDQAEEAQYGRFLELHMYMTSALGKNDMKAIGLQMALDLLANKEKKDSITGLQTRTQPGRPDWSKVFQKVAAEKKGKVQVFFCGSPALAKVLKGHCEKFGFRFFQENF

[23] = target: NADPH oxidase 3 (Homo sapiens, UniProt Q9HBY0); experiment: Inhibition of human NOX3
NADPH oxidase 3, sequence (Q9HBY0 whole entry): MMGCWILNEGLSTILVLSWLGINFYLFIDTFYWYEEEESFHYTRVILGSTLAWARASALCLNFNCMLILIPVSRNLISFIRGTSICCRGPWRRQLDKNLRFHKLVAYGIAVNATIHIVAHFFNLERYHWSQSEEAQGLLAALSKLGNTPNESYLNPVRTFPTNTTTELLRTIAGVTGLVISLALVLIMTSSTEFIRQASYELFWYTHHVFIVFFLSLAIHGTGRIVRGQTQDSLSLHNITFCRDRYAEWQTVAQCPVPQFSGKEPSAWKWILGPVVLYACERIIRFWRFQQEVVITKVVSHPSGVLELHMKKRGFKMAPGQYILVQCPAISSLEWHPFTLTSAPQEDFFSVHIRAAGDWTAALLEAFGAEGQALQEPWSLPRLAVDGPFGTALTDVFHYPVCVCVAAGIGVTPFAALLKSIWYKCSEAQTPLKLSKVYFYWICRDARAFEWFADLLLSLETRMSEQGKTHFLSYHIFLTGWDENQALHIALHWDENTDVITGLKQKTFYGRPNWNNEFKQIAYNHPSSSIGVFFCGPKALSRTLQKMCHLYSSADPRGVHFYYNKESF

[24] = target: NADPH oxidase 2 (Homo sapiens, UniProt P04839); experiment: Inhibition of human NOX2
NADPH oxidase 2, sequence (P04839 whole entry): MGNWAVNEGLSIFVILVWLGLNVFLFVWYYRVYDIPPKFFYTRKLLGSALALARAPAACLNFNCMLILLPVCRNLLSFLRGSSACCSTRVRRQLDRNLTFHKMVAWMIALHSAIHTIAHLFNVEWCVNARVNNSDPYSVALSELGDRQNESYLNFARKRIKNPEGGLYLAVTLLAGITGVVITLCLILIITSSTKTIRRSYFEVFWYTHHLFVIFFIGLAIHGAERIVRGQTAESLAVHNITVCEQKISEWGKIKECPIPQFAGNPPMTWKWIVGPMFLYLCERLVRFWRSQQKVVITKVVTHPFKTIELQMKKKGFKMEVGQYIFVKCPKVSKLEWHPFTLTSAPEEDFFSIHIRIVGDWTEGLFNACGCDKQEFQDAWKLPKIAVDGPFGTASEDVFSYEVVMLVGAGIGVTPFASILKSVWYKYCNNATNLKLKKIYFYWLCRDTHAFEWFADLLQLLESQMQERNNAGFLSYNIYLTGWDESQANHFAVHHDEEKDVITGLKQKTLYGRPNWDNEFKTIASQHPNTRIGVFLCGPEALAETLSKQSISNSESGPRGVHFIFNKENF

[25] = target: NADPH oxidase 4 (Homo sapiens, UniProt Q9NPH5); experiment: Inhibition of human NOX4
NADPH oxidase 4, sequence (Q9NPH5 whole entry): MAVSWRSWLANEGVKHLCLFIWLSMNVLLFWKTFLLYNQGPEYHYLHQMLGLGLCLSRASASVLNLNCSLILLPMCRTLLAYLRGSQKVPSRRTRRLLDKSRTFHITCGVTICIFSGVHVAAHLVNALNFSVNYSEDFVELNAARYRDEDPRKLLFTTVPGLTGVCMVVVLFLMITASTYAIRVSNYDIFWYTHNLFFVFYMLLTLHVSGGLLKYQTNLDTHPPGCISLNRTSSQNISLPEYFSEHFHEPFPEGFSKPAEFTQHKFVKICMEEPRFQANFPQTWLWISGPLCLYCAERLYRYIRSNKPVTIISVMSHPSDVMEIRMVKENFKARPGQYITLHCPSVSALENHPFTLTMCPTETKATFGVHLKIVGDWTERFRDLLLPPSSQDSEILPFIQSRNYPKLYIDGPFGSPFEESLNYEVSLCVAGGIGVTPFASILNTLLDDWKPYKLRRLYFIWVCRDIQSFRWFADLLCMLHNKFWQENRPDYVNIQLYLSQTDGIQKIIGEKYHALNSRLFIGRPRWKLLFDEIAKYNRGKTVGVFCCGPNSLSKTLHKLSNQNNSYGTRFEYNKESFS

[26] = target: T1, Equilibrative nucleoside transporter 2; experiment: Inhibition of human ENT2 transfected in nucleoside transporter-deficient pig PK-15 cells assessed as inhibition of [3H]-adenosine uptake by liquid scintillation counter analysis; format: cell-based
[27] = target: T2, Equilibrative nucleoside transporter 1; experiment: Inhibition of human ENT1 transfected in nucleoside transporter-deficient pig PK-15 cells assessed as inhibition of [3H]-adenosine uptake by liquid scintillation counter analysis; format: cell-based
[28] = Cytotoxicity against […] cells assessed as cell growth inhibition measured after 72 hrs by CellTiter-Glo assay; format: functional, cell-based; conditions: Hepa1-6, 72 h
[29] = Cytotoxicity against human Hepa 1-6/R cells assessed as cell growth inhibition measured after 72 hrs by CellTiter-Glo assay; format: functional, cell-based

**Q.** Which results are given for `CCc1ccc(Nc2nc(N)nc(-c3oc4ccccc4c3C)n2)cc1`?
**A.** IC50 [1]: 63 nM; IC50 [2]: 25 nM; IC50 [3]: 15 nM; IC50 [4]: 79 nM; IC50 [5]: 111 nM; IC50 [6]: 48 nM

**Q.** For `CCOc1ccc(Cl)cc1-c1nc(N)nc(Nc2ccc(Cl)cc2)n1`, which IC50 [7] is on record?
**A.** 50 nM

**Q.** And the IC50 [8]?
**A.** 30 nM

**Q.** What about the IC50 [9] of the same compound?
**A.** 32 nM

**Q.** And the IC50 [10]?
**A.** 20 nM

**Q.** And the IC50 [11]?
**A.** 20 nM

**Q.** What about the IC50 [12] of the same compound?
**A.** 30 nM

**Q.** What about the IC50 [13] of the same compound?
**A.** 54 nM

**Q.** And the IC50 [14]?
**A.** 30 nM

**Q.** What about the IC50 [15] of the same compound?
**A.** 10 nM

**Q.** What about the IC50 [16] of the same compound?
**A.** 33 nM

**Q.** What about the IC50 [17] of the same compound?
**A.** 30 nM

**Q.** What about the IC50 [18] of the same compound?
**A.** 80 nM

**Q.** Which results are given for `Cc1ccc(Cl)cc1-c1nc(N)nc(Nc2ccc(Br)cc2)n1`?
**A.** IC50 [7]: 90 nM; IC50 [10]: 75 nM; IC50 [11]: 50 nM; IC50 [12]: 50 nM; IC50 [13]: 100 nM; IC50 [14]: 50 nM; IC50 [15]: 70 nM; IC50 [16]: 37 nM; IC50 [17]: 70 nM; IC50 [18]: 104 nM

**Q.** For `COc1ccc(Nc2nc(N)nc(CN3CCN(c4ccccc4F)CC3)n2)cc1`, which IC50 [19] is on record?
**A.** 77100 nM

**Q.** And the IC50 [20]?
**A.** 590 nM

**Q.** What does the source list for `CCOc1ccc(Cl)cc1-c1nc(N)nc(Nc2ccc(CO)cc2)n1`?
**A.** IC50 [7]: 40 nM; IC50 [8]: < 12.5 nM; IC50 [9]: 29 nM; IC50 [10]: 25 nM; IC50 [11]: < 12.5 nM; IC50 [12]: < 12.5 nM; IC50 [13]: 41 nM; IC50 [14]: < 12.5 nM; IC50 [15]: 13 nM; IC50 [16]: 32 nM; IC50 [17]: 25 nM; IC50 [18]: 25 nM

**Q.** Which IC50 [1] does the source give for `CCc1c(-c2nc(N)nc(Nc3ccc(C)cc3)n2)oc2ccccc12` here?
**A.** 102 nM

**Q.** And the IC50 [2]?
**A.** 51 nM

**Q.** What about the IC50 [3] of the same compound?
**A.** 8.4 nM

**Q.** And the IC50 [4]?
**A.** 179 nM

**Q.** What about the IC50 [5] of the same compound?
**A.** 140 nM

**Q.** What about the IC50 [6] of the same compound?
**A.** 62 nM

**Q.** Which IC50 [21] does the source give for `Cc1ccc(N2CCN(c3nc(N)nc(Nc4ccc(C)c(C)c4)n3)CC2)cc1` here?
**A.** 7 µM

**Q.** What about the IC50 [22] of the same compound?
**A.** 570 nM

**Q.** And the IC50 [23]?
**A.** 3200 nM

**Q.** What about the IC50 [24] of the same compound?
**A.** 16 µM

**Q.** And the IC50 [25]?
**A.** 680 nM

**Q.** Which IC50 [19] does the source give for `Cc1cccc(Nc2nc(N)nc(CN3CCN(c4ccc(F)cc4)CC3)n2)c1` here?
**A.** 570 nM

**Q.** And the IC50 [20]?
**A.** 2380 nM

**Q.** For `Nc1nc(CN2CCN(c3ccccc3F)CC2)nc(Nc2cccc3ccccc23)n1`, which IC50 [26] is on record?
**A.** 4.36 µM

**Q.** What about the IC50 [19] of the same compound?
**A.** 1690 nM

**Q.** What about the IC50 [27] of the same compound?
**A.** 19.4 µM

**Q.** What about the IC50 [20] of the same compound?
**A.** 18000 nM

**Q.** For `COc1cccc(N2CCN(Cc3nc(N)nc(Nc4ccc(C)c(C)c4)n3)CC2)c1`, which IC50 [21] is on record?
**A.** > 10 µM

**Q.** What about the IC50 [23] of the same compound?
**A.** 1250 nM

**Q.** And the IC50 [24]?
**A.** 1.25 µM

**Q.** Which results are given for `C[C@H](CCc1nc(N)nc(N(C)C)n1)[C@H]1CC[C@H]2[C@@H]3[C@@H](O)C[C@@H]4C[C@H](O)CC[C@]4(C)[C@H]3CC[C@]12C`?
**A.** IC50 [28]: 28.6 µM; IC50 [29]: 30.3 µM
